Laboratory results as given in patent US20250059205A1, “Heterocyclic Compounds and Methods of Use” (AMGEN INC., priority 2021, published 2025).
pIC50: −log10 of the molar value.

Experiments:
[1] = test system: Phosphorylation of ERK1/2 in AsPC-1 cells; assay: Phospho-ERK1/2 MSD Assay (AsPC-1 cells); assay type: cell-based; details: Homo sapiens, ASPC1, 2 h, 2 hours treatment, read-out: p-ERK (AsPC-1 cells) IC50
Outline: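 Read-out: MSD electrochemiluminescent detection of phosphorylated ERK1/2 in whole-cell lysates, fitted to a 4-parameter logistic curve for IC50. Prior to lysis, AsPC-1 cells (25,000 per well) received a 2 h compound dose-response at 37 °C.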

[2] = target: GDP-bound KRAS protein (aa 1-169), containing both G12D and C118A amino acid substitutions (Homo sapiens, UniProt P01116, C118A/G12D); assay: KRAS G12D Coupled Nucleotide Exchange Assay; assay type: biochemical; details: 2 h compound pre-incubation
Sequence of GDP-bound KRAS protein (aa 1-169), containing both G12D and C118A amino acid substitutions (P01116 1-169 isoform P01116-2 G12D/C118A): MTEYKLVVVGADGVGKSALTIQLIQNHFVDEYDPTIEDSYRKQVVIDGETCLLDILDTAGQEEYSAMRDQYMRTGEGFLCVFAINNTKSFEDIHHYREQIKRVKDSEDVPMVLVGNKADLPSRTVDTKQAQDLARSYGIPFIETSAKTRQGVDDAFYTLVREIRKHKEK
Method: Following compound pre-incubation, purified SOS protein (aa 564-1049) and GTP (Roche 10106399001) were added to the assay wells and incubated for an additional 30 min. […] The assay plates were then read on a PerkinElmer EnVision Multilabel Reader, using AlphaScreen® technology, and data were analyzed using a 4-parameter logistic model to calculate IC50 values.

[3] = test system: Phosphorylation of ERK1/2 in A-427 cells; assay: Phospho-ERK1/2 MSD Assay (A-427 cells); assay type: cell-based; details: Homo sapiens, A-427, 2 h, 2 h treatment, read-out: p-ERK (A427 cells) IC50
Outline: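 ERK1/2 phosphorylation measured by Meso Scale whole-cell lysate assay after A-427 cells were exposed to a titration of compound for 2 h at 37 °C.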

[4] = target: His-tagged KRAS G12D protein (Homo sapiens, UniProt P01116, G12D); assay: KRAS G12D TR-FRET Assay; assay type: binding
Sequence of His-tagged KRAS G12D protein (P01116 1-188 isoform P01116-2 G12D): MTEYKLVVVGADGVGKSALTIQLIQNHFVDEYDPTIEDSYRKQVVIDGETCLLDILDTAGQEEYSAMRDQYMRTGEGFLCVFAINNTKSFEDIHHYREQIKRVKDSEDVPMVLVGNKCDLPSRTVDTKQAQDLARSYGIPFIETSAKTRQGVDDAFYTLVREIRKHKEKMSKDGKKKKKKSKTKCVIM

With `CCc1c(F)ccc2cc(O)cc(-c3cc(F)c4c(N5C[C@H]6CC[C@@H](C5)N6)nc(OC[C@@]56CCCN5C[C@H](F)C6)nc4c3F)c12` [Example 231, 4-(4-((1R,5S)-3,8-diazabicyclo[3.2.1]octan-3-yl)-5,8-difluoro-2-(((2R,7aS)-2-fluorotetrahydro-1H-pyrrolizin-7a(5H)-yl)methoxy)quinazolin-7-yl)-5-ethyl-6-fluoronaphthalen-2-ol] the pIC50 [1] was 7.17, the “Avg 2 h Coupled Exchange IC50” value [2] was 5 nM and the pIC50 [3] was 7.82. For the same compound, the pIC50 [4] was 8.40.
